Holding throughout (experiment): Eurofins kinase panel
Common to all, as to type: biochemical
Holding throughout (conditions): read-out: Inhibition rate (%)

In assay [1] the target is T1, GRK1(h) (Homo sapiens, UniProt Q15835).
T1 construct: purchased Eurofins (KinaseProfiler)
T1 sequence (Q15835 1-563): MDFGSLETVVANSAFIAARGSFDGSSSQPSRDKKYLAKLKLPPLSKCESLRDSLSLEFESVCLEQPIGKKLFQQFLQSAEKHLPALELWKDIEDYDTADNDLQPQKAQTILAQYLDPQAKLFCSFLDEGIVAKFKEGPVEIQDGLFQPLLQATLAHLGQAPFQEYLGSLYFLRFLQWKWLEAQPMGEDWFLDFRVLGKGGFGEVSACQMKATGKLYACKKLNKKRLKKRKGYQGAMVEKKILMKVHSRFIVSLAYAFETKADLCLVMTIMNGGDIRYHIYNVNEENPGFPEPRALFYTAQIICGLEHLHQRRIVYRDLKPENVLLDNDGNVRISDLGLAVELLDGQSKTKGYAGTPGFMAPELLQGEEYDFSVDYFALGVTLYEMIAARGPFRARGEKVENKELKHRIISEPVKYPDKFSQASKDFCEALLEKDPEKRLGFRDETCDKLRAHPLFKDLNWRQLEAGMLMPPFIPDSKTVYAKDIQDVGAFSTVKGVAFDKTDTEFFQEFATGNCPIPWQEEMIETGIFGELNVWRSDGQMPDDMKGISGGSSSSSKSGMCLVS

The target of assay [2] is T2, NEK3(h) (Homo sapiens, UniProt P51956).
T2 construct: purchased Eurofins (KinaseProfiler)
T2 sequence (P51956 1-506): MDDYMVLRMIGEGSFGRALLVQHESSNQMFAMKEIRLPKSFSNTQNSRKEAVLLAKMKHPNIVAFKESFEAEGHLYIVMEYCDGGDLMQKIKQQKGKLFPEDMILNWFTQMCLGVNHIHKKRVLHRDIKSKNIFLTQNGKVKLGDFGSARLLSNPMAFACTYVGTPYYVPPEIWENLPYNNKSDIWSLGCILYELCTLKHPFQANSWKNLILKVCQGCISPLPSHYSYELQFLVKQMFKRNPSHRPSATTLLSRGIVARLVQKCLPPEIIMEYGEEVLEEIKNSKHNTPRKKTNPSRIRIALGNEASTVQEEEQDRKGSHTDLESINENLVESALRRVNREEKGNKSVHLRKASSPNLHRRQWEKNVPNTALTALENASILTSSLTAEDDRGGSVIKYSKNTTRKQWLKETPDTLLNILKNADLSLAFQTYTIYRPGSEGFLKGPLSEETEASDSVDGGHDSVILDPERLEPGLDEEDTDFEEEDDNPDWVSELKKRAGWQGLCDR

Assay [3] concerns the target T3, DNA-PK(h) (Homo sapiens, UniProt P78527).
T3 construct: purchased Eurofins (KinaseProfiler)

For assay [4], the target named is T4, PKD2(h) (Homo sapiens, UniProt Q9BZL6).
T4 construct: purchased Eurofins (KinaseProfiler)
T4 sequence (Q9BZL6 1-878): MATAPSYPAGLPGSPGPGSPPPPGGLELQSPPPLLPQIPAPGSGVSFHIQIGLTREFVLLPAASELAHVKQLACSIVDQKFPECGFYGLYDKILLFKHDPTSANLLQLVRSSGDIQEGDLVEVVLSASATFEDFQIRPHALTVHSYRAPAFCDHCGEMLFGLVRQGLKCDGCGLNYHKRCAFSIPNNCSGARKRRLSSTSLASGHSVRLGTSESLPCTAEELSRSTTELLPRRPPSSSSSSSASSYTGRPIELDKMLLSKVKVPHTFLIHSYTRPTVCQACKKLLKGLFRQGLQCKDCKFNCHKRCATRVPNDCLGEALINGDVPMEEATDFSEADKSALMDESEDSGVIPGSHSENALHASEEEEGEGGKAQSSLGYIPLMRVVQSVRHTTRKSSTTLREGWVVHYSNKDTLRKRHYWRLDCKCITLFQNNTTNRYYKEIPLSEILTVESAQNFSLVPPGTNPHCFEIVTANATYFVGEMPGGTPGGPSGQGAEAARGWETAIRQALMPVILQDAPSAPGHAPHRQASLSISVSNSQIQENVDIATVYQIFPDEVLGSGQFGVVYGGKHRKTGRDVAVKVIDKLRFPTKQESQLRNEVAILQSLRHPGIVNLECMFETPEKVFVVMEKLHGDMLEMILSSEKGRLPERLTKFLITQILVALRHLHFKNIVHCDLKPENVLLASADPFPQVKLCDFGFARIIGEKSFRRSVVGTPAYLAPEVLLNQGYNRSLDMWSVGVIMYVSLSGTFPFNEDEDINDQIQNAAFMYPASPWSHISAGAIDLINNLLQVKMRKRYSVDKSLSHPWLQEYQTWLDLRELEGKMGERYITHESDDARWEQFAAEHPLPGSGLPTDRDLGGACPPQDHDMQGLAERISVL

Assay [5] deals with T5, PKCζ(h) (Homo sapiens, UniProt Q05513).
T5 construct: purchased Eurofins (KinaseProfiler)
T5 sequence (Q05513 1-592): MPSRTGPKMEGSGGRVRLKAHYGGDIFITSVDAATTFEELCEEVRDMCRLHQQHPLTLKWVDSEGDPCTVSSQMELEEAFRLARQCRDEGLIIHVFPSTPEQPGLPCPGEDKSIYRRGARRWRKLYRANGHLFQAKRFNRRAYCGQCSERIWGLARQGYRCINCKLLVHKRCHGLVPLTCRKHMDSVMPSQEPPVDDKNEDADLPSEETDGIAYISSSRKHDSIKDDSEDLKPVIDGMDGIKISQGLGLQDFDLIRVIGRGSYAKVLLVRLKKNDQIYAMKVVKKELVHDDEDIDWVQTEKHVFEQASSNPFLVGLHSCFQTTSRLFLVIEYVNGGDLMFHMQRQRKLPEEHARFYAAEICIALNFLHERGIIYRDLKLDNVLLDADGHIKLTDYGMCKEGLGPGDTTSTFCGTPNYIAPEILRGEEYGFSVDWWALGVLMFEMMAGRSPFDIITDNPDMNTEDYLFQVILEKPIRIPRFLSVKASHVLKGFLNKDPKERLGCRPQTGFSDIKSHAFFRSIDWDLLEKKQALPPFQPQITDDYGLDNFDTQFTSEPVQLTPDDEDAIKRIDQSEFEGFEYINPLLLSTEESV

The inhibition is the change of the read-out against control, counted positive when it falls. In the case of `COc1cc(OC)c(Cl)c(-c2ccc3c(NC(=O)c4ccc(N5CCNC(C)(C)C5)cc4)n[nH]c3n2)c1Cl` [3D185], the inhibition at 0.01 µM was -2% in assay [1] (10 nM); 10% in assay [2] (10 nM); 5% in assay [3] (10 nM); 7% in assay [4] (10 nM); -11% in assay [5] (10 nM). For the same compound, the inhibition at 0.1 µM in assay [1] (100 nM) was -5%; in assay [2] (100 nM), 13%; in assay [3] (100 nM), 2%; in assay [4] (100 nM), -4%; in assay [5] (100 nM), 7%. For the same compound, the inhibition at 1 µM in assay [1] (1000 nM) was -7%; in assay [2] (1000 nM), 5%; in assay [3] (1000 nM) it was 0%; in assay [4] (1000 nM), 3%; in assay [5] (1000 nM), -22%.

Source of the values: PMC6704710, “Preclinical evaluation of 3D185, a novel potent inhibitor of FGFR1/2/3 and CSF-1R, in FGFR-dependent and macrophage-dominant cancer models” (Journal of Experimental & Clinical Cancer Research : CR, 2019).
